Measured values taken from ChEMBL document CHEMBL2146389, “Possible conformation of amphotericin B dimer in membrane-bound assembly as deduced from solid-state NMR” (Bioorg Med Chem, 2012).

How the values were obtained:
[1] = Binding affinity to ergosterol-containing palmitoyloleoylphosphatidylcholine membrane at 0.84 uM by UV spectra analysis; assay type: physicochemical
[2] = Ratio of amphotericin B EC50 to compound EC50 for human erythrocytes; assay type: ADME, cell-based, Erythrocyte; conditions: read-out: Ratio EC50
Aspergillus niger = assay: Antifungal activity against Aspergillus niger assessed as minimum compound concentration per disc required for inhibition zone formation after 50 hrs by disc diffusion assay; assay type: functional
[3] = Hemolytic activity against human erythrocytes after 18 hrs by spectrophotometry; assay type: ADME, cell-based; conditions: Erythrocyte
[4] = Binding affinity to ergosterol-containing palmitoyloleoylphosphatidylcholine membrane at 1.67 uM by UV spectra analysis; assay type: physicochemical
[5] = Binding affinity to ergosterol-containing palmitoyloleoylphosphatidylcholine membrane by UV spectra analysis; assay type: physicochemical

SMILES	Activity (Aspergillus niger) [µg]	EC50 [3] [µM]	further results
COC(=O)[C@H]1[C@@H]2C[C@@H](O[C@@H]3O[C@H](C)[C@@H](O)[C@H](NCCCNC(=O)CNC(=O)[C@H]4[C@@H]5C[C@@H](O[C@@H]6O[C@H](C)[C@@H](O)[C@H](N)[C@@H]6O)/C=C/C=C/C=C/C=C/C=C/C=C/C=C/[C@H](C)[C@@H](O)[C@@H](C)[C@H](C)OC(=O)C[C@H](O)C[C@H](O)CC[C@@H](O)[C@H](O)C[C@H](O)C[C@](O)(C[C@@H]4O)O5)[C@@H]3O)/C=C/C=C/C=C/C=C/C=C/C=C/C=C/[C@H](C)[C@@H](O)[C@@H](C)[C@H](C)OC(=O)C[C@H](O)C[C@H](O)CC[C@@H](O)[C@H](O)C[C@H](O)C[C@](O)(C[C@@H]1O)O2			Activity [1]: Active
C[C@@H]1[C@H](O)[C@@H](C)/C=C/C=C/C=C/C=C/C=C/C=C/C=C/[C@H](O[C@@H]2O[C@H](C)[C@@H](O)[C@H](NCCCNC(=O)CNC(=O)[C@@H]3[C@@H](O)[C@H](F)[C@@]4(O)C[C@@H](O)C[C@@H](O)[C@H](O)CC[C@@H](O)C[C@@H](O)CC(=O)O[C@@H](C)[C@H](C)[C@H](O)[C@@H](C)/C=C/C=C/C=C/C=C/C=C/C=C/C=C/[C@H](O[C@@H]5O[C@H](C)[C@@H](O)[C@H](N)[C@@H]5O)C[C@@H]3O4)[C@@H]2O)C[C@@H]2O[C@](O)(C[C@@H](O)C[C@@H](O)[C@H](O)CC[C@@H](O)C[C@@H](O)CC(=O)O[C@H]1C)C[C@H](O)[C@H]2C(=O)O[13CH3]	50	13	selectivity ratio [2]: 6
COC(=O)[C@H]1[C@@H]2C[C@@H](O[C@@H]3O[C@H](C)[C@@H](O)[C@H](N)[C@@H]3O)/C=C/C=C/C=C/C=C/C=C/C=C/C=C/[C@H](C)[C@@H](O)[C@@H](C)[C@H](C)OC(=O)C[C@H](O)C[C@H](O)CC[C@@H](O)[C@H](O)C[C@H](O)C[C@](O)(C[C@@H]1O)O2 [AMPHOTERICIN B ME ESTER]			Activity [4]: Active
C[C@@H]1[C@H](O)[C@@H](C)/C=C/C=C/C=C/C=C/C=C/C=C/C=C/[C@H](O[C@@H]2O[C@H](C)[C@@H](O)[C@H](N)[C@@H]2O)C[C@@H]2O[C@](O)(C[C@@H](O)C[C@@H](O)[C@H](O)CC[C@@H](O)C[C@@H](O)CC(=O)O[C@H]1C)C[C@H](O)[C@H]2C(=O)O [AMPHOTERICIN B]	10	2	Activity [5]: Active
